Measured values taken from PubChem BioAssay (NCI).
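Assay format: 96-well plates, 48-hour exposure. Here, GI50 denotes the concentration required for 50% inhibition of growth. The concentration for full growth arrest is given as TGI.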

Columns and labels:
Assay in all cases: NCI-60 cell line screen, 48 h
HCT-116 colon = tested on: HCT-116 colon
IGROV1 ovarian = tested on: IGROV1 ovarian
SK-OV-3 ovarian = tested on: SK-OV-3 ovarian
HCT-15 colon = tested on: HCT-15 colon
MOLT-4 leukemia = tested on: MOLT-4 leukemia
TK-10 renal = tested on: TK-10 renal
HOP-62 NSCLC = tested on: HOP-62 NSCLC
A549 NSCLC = tested on: A549 NSCLC
EKVX NSCLC = tested on: EKVX NSCLC
RPMI-8226 leukemia = tested on: RPMI-8226 leukemia
HOP-92 NSCLC = tested on: HOP-92 NSCLC
SK-MEL-2 melanoma = tested on: SK-MEL-2 melanoma
MALME-3M melanoma = tested on: MALME-3M melanoma
SF-268 CNS = tested on: SF-268 CNS
UACC-62 melanoma = tested on: UACC-62 melanoma
BT-549 breast = tested on: BT-549 breast
T-47D breast = tested on: T-47D breast
LOX IMVI melanoma = tested on: LOX IMVI melanoma
ACHN renal = tested on: ACHN renal
MDA-MB-231 breast = tested on: MDA-MB-231 breast
NCI-H522 lung = tested on: NCI-H522 lung
OVCAR-4 ovarian = tested on: OVCAR-4 ovarian
UACC-257 melanoma = tested on: UACC-257 melanoma
SNB-19 CNS = tested on: SNB-19 CNS
SK-MEL-28 melanoma = tested on: SK-MEL-28 melanoma
SNB-75 CNS = tested on: SNB-75 CNS
COLO 205 colon = tested on: COLO 205 colon
786-0 renal = tested on: 786-0 renal
HS 578T breast = tested on: HS 578T breast
OVCAR-5 ovarian = tested on: OVCAR-5 ovarian
NCI-H460 lung = tested on: NCI-H460 lung
U251 CNS = tested on: U251 CNS
A498 renal = tested on: A498 renal
CAKI-1 renal = tested on: CAKI-1 renal
SN12C renal = tested on: SN12C renal
DU-145 prostate = tested on: DU-145 prostate
CCRF-CEM leukemia = tested on: CCRF-CEM leukemia
NCI/ADR-RES ovarian = tested on: NCI/ADR-RES ovarian
SK-MEL-5 melanoma = tested on: SK-MEL-5 melanoma
SR leukemia = tested on: SR leukemia
KM12 colon = tested on: KM12 colon
NCI-H23 lung = tested on: NCI-H23 lung
UO-31 renal = tested on: UO-31 renal
SF-295 CNS = tested on: SF-295 CNS
MCF7 breast = tested on: MCF7 breast
SW-620 colon = tested on: SW-620 colon
HCC-2998 colon = tested on: HCC-2998 colon
OVCAR-3 ovarian = tested on: OVCAR-3 ovarian
RXF 393 renal = tested on: RXF 393 renal
HT29 colon = tested on: HT29 colon
OVCAR-8 ovarian = tested on: OVCAR-8 ovarian
MDA-MB-435 = tested on: MDA-MB-435
NCI-H226 lung = tested on: NCI-H226 lung
K-562 leukemia = tested on: K-562 leukemia
SF-539 CNS = tested on: SF-539 CNS

O=C(N/N=C/c1ccccc1O)c1ccccc1O
GI50 (HCT-116 colon): 325 nM | TGI (HCT-116 colon): > 100000 nM | GI50 (IGROV1 ovarian): 794 nM | TGI (IGROV1 ovarian): > 100000 nM | GI50 (SK-OV-3 ovarian): 1750 nM | TGI (SK-OV-3 ovarian): > 100000 nM | GI50 (HCT-15 colon): 423 nM | TGI (HCT-15 colon): > 100000 nM | GI50 (MOLT-4 leukemia): 637 nM | TGI (MOLT-4 leukemia): > 100000 nM | GI50 (TK-10 renal): 518 nM | TGI (TK-10 renal): > 100000 nM | GI50 (HOP-62 NSCLC): 568 nM | TGI (HOP-62 NSCLC): > 100000 nM | GI50 (A549 NSCLC): 2080 nM | TGI (A549 NSCLC): > 100000 nM | GI50 (EKVX NSCLC): 2230 nM | TGI (EKVX NSCLC): > 100000 nM | GI50 (RPMI-8226 leukemia): 1700 nM | TGI (RPMI-8226 leukemia): > 100000 nM | GI50 (HOP-92 NSCLC): 804 nM | TGI (HOP-92 NSCLC): > 100000 nM | GI50 (SK-MEL-2 melanoma): 1030 nM | TGI (SK-MEL-2 melanoma): > 100000 nM | GI50 (MALME-3M melanoma): 12600 nM | TGI (MALME-3M melanoma): > 100000 nM | GI50 (SF-268 CNS): 802 nM | TGI (SF-268 CNS): > 100000 nM | GI50 (UACC-62 melanoma): 733 nM | TGI (UACC-62 melanoma): > 100000 nM | GI50 (BT-549 breast): 4440 nM | TGI (BT-549 breast): > 100000 nM | GI50 (T-47D breast): 418 nM | TGI (T-47D breast): > 100000 nM | GI50 (LOX IMVI melanoma): 286 nM | TGI (LOX IMVI melanoma): > 100000 nM | GI50 (ACHN renal): 680 nM | TGI (ACHN renal): > 100000 nM | GI50 (MDA-MB-231 breast): 676 nM | TGI (MDA-MB-231 breast): > 100000 nM | GI50 (NCI-H522 lung): 303 nM | TGI (NCI-H522 lung): 17900 nM | GI50 (OVCAR-4 ovarian): 297 nM | TGI (OVCAR-4 ovarian): > 100000 nM | GI50 (UACC-257 melanoma): 434 nM | TGI (UACC-257 melanoma): > 100000 nM | GI50 (SNB-19 CNS): 2690 nM | TGI (SNB-19 CNS): > 100000 nM | GI50 (SK-MEL-28 melanoma): 1920 nM | TGI (SK-MEL-28 melanoma): > 100000 nM | GI50 (SNB-75 CNS): 390 nM | TGI (SNB-75 CNS): > 100000 nM | GI50 (COLO 205 colon): 3530 nM | TGI (COLO 205 colon): > 100000 nM | GI50 (786-0 renal): 1140 nM | TGI (786-0 renal): > 100000 nM | GI50 (HS 578T breast): 8510 nM | TGI (HS 578T breast): > 100000 nM | GI50 (OVCAR-5 ovarian): 4960 nM | TGI (OVCAR-5 ovarian): > 100000 nM | GI50 (NCI-H460 lung): 514 nM | TGI (NCI-H460 lung): > 100000 nM | GI50 (U251 CNS): 926 nM | TGI (U251 CNS): > 100000 nM | GI50 (A498 renal): 2570 nM | TGI (A498 renal): > 100000 nM | GI50 (CAKI-1 renal): 488 nM | TGI (CAKI-1 renal): > 100000 nM | GI50 (SN12C renal): 1440 nM | TGI (SN12C renal): > 100000 nM | GI50 (DU-145 prostate): 847 nM | TGI (DU-145 prostate): > 100000 nM | GI50 (CCRF-CEM leukemia): 499 nM | TGI (CCRF-CEM leukemia): > 100000 nM | GI50 (NCI/ADR-RES ovarian): 451 nM | TGI (NCI/ADR-RES ovarian): > 100000 nM | GI50 (SK-MEL-5 melanoma): 1080 nM | TGI (SK-MEL-5 melanoma): 12800 nM | GI50 (SR leukemia): 1740 nM | TGI (SR leukemia): > 100000 nM | GI50 (KM12 colon): 766 nM | TGI (KM12 colon): > 100000 nM | GI50 (NCI-H23 lung): 2900 nM | TGI (NCI-H23 lung): > 100000 nM | GI50 (UO-31 renal): 3120 nM | TGI (UO-31 renal): > 100000 nM | GI50 (SF-295 CNS): 1270 nM | TGI (SF-295 CNS): > 100000 nM | GI50 (MCF7 breast): 337 nM | TGI (MCF7 breast): > 100000 nM | GI50 (SW-620 colon): 877 nM | TGI (SW-620 colon): > 100000 nM | GI50 (HCC-2998 colon): 1910 nM | TGI (HCC-2998 colon): > 100000 nM | GI50 (OVCAR-3 ovarian): 437 nM | TGI (OVCAR-3 ovarian): > 100000 nM | GI50 (RXF 393 renal): 1490 nM | TGI (RXF 393 renal): > 100000 nM | GI50 (HT29 colon): 11600 nM | TGI (HT29 colon): > 100000 nM | GI50 (OVCAR-8 ovarian): 618 nM | TGI (OVCAR-8 ovarian): > 100000 nM | GI50 (MDA-MB-435): 3880 nM | TGI (MDA-MB-435): > 100000 nM | GI50 (NCI-H226 lung): 2430 nM | TGI (NCI-H226 lung): > 100000 nM | GI50 (K-562 leukemia): 2620 nM | TGI (K-562 leukemia): > 100000 nM | GI50 (SF-539 CNS): 1740 nM | TGI (SF-539 CNS): > 100000 nM
